Results reported in patent US20070004660A1, “Synergistic Modulation of Flt3 Kinase Using Alkylquinolines and Alkylquinazolines” (priority 2005, published 2007).
pIC50: −log10 of the molar value.

These molecules were tested against T1, isolated kinase domain of the human FLT3 receptor (a.a. 571-993) (Homo sapiens, UniProt P36888) (assay: FLT3 fluorescence polarization kinase assay). Conditions: 150 uM ATP; uncertainty ±10%.
T1 construct: human FLT3 receptor (a.a. 571-993)
T1 sequence (P36888 571-993): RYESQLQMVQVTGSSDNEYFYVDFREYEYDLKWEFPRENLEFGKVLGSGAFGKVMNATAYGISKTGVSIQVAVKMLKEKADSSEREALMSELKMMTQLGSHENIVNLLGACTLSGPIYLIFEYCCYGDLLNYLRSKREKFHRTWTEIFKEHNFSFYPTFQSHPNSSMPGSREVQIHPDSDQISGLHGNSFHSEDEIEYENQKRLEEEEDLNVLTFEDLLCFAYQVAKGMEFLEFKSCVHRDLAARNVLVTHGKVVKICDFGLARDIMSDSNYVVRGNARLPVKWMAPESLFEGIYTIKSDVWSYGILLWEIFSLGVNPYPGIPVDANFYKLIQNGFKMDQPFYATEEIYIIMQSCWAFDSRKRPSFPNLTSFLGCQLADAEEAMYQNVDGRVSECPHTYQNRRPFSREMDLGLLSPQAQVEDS
Type: biochemical

Row | Structure (SMILES) | pIC50
1 | CS(=O)(=O)NCCCOc1ccc2c(C3CCN(C(=O)Nc4ccc(N5CCCC5)nc4)CC3)ncnc2c1 [Example 86, 4-[7-(3-Methanesulfonylamino-propoxy)-quinazolin-4-yl]-piperidine-1-carboxylic acid (6-pyrrolidin-1-yl-pyridin-3-yl)-amide] | 9.00
2 | CC(C)Oc1ccc(NC(=O)N2CCC(c3ncnc4ccccc34)CC2)cc1 [Example 8, 4-Quinazolin-4-yl-piperidine-1-carboxylic acid (4-isopropoxy-phenyl)-amide] | 6.70
3 | COc1cc2ncnc(C3CCN(C(=O)Nc4ccc(C5=CCNCC5)cc4)CC3)c2cc1OC [Example 62, 4-(6,7-Dimethoxy-quinazolin-4-yl)-piperidine-1-carboxylic acid [4-(1,2,3,6-tetrahydro-pyridin-4-yl)-phenyl]-amide] | < 5.00
4 | O=C1CCCN1CCOc1ccc2c(C3CCN(C(=O)Nc4ccc(N5CCCC5)cc4)CC3)ncnc2c1 [Example 74, 4-{7-[2-(2-Oxo-pyrrolidin-1-yl)-ethoxy]-quinazolin-4-yl}-piperidine-1-carboxylic acid (4-pyrrolidin-1-yl-phenyl)-amide] | 9.00
5 | COc1cc2ncnc(C3CCN(C(=O)Nc4ccc(-c5ccc(Cl)nc5)cc4)CC3)c2cc1OC [Example 60, 4-(6,7-Dimethoxy-quinazolin-4-yl)-piperidine-1-carboxylic acid [4-(6-chloro-pyridin-3-yl)-phenyl]-amide] | 6.44
6 | COCCCOc1ccc2c(C3CCN(C(=O)Nc4ccc(N5CCOCC5)cc4)CC3)ncnc2c1 [Example 78, 4-[7-(3-Methoxy-propoxy)-quinazolin-4-yl]-piperidine-1-carboxylic acid (4-morpholin-4-yl-phenyl)-amide] | 6.65
7 | O=C(Nc1ccc(N2CCOCC2)cc1)N1CCC(c2ncnc3cc(OCCN4CCOCC4)ccc23)CC1 [Example 96, 4-[7-(2-Morpholin-4-yl-ethoxy)-quinazolin-4-yl]-piperidine-1-carboxylic acid (4-morpholin-4-yl-phenyl)-amide] | 7.44
8 | COc1cc2ncnc(C3CCN(C(=O)NC4CCC(C(C)(C)C)CC4)CC3)c2cc1OC (centres unmarked) [Example 54, 4-(6,7-Dimethoxy-quinazolin-4-yl)-piperidine-1-carboxylic acid (4-tert-butyl-cyclohexyl)-amide] | 6.77
9 | O=C(Nc1ccc(N2CCOCC2)nc1)N1CCC(c2ncnc3cc(OCCN4CCOC4=O)ccc23)CC1 [Example 91, 4-{7-[2-(2-Oxo-oxazolidin-3-yl)-ethoxy]-quinazolin-4-yl}-piperidine-1-carboxylic acid (6-morpholin-4-yl-pyridin-3-yl)-amide] | 8.52
10 | CC(C)c1ccc(NC(=O)N2CCC(c3ncnc4ccccc34)CC2)cc1 [Example 7, 4-Quinazolin-4-yl-piperidine-1-carboxylic acid (4-isopropyl-phenyl)-amide] | 7.26
11 | O=C1CCCN1CCCOc1ccc2c(C3CCN(C(=O)Nc4ccc(N5CCOCC5)nc4)CC3)ncnc2c1 [Example 72, 4-{7-[3-(2-Oxo-pyrrolidin-1-yl)-propoxy]-quinazolin-4-yl}-piperidine-1-carboxylic acid (6-morpholin-4-yl-pyridin-3-yl)-amide] | 7.57
12 | CN1CCN(CCCOc2ccc3c(C4CCN(C(=O)Nc5ccc(N6CCCC6)nc5)CC4)ncnc3c2)CC1 [Example 104, 4-{7-[3-(4-Methyl-piperazin-1-yl)-propoxy]-quinazolin-4-yl}-piperidine-1-carboxylic acid (6-pyrrolidin-1-yl-pyridin-3-yl)-amide] | 7.96
13 | COc1cc2ncnc(C3CCN(C(=O)Nc4ccc(Oc5ccccc5)cc4)CC3)c2cc1OC [Example 47, 4-(6,7-Dimethoxy-quinazolin-4-yl)-piperidine-1-carboxylic acid (4-phenoxy-phenyl)-amide] | 7.46
14 | CC(C)Oc1ccc(NC(=O)N2CCC(c3ncnc4ccc(C#CCO)cc34)CC2)cc1 [Example 12, 4-[6-(3-Hydroxy-prop-1-ynyl)-quinazolin-4-yl]-piperidine-1-carboxylic acid (4-isopropoxy-phenyl)-amide] | 7.49
